# In PubChem BioAssay AID1963967 (Molecular Pharmacology Branch, DTP, NCI, 2024):
# Test system: 855422-203-R-J1-PDC spheroids with HUVEC/MSC, viability
# Test: Anticancer human tumor 855422-203-R-J1-PDC patient-derived bladder carcinoma cell line growth inhibition [PI3K]
# Conditions: for IC50: curve of first compound; for viability, T/C: stronger effect = lower value
# In short: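 Agents were dosed from a top concentration near clinical Cmax (otherwise 10 microM) in half-log decrements, alone or combined with PI3K inhibitors. The spheroids contain tumor cells plus endothelial (HUVEC) and MSC stroma; viability is measured.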
# [1] = second compound 0.0316 µM, first compound 0.0316 µM
# [2] = second compound 0.0316 µM, first compound 0.1 µM
# [3] = second compound 0.0316 µM, first compound 0.316 µM
# [4] = second compound 0.0316 µM, first compound 1 µM
# [5] = second compound 0.0316 µM, first compound 3.16 µM
# [6] = second compound 0.0316 µM, first compound 10 µM
# [7] = second compound 0.1 µM, first compound 0.0316 µM
# [8] = second compound 0.1 µM, first compound 0.1 µM
# [9] = second compound 0.1 µM, first compound 0.316 µM
# [10] = second compound 0.1 µM, first compound 1 µM
# [11] = second compound 0.1 µM, first compound 3.16 µM
# [12] = second compound 0.1 µM, first compound 10 µM
# [13] = second compound 0.316 µM, first compound 0.0316 µM
# [14] = second compound 0.316 µM, first compound 0.1 µM
# [15] = second compound 0.316 µM, first compound 0.316 µM
# [16] = second compound 0.316 µM, first compound 1 µM
# [17] = second compound 0.316 µM, first compound 3.16 µM
# [18] = second compound 0.316 µM, first compound 10 µM
# [19] = second compound 1 µM, first compound 0.0316 µM
# [20] = second compound 1 µM, first compound 0.1 µM
# [21] = second compound 1 µM, first compound 0.316 µM
# [22] = second compound 1 µM, first compound 1 µM
# [23] = second compound 1 µM, first compound 3.16 µM
# [24] = second compound 1 µM, first compound 10 µM
# [25] = second compound 3.16 µM, first compound 0.0316 µM
# [26] = second compound 3.16 µM, first compound 0.1 µM
# [27] = second compound 3.16 µM, first compound 0.316 µM
# [28] = second compound 3.16 µM, first compound 1 µM
# [29] = second compound 3.16 µM, first compound 3.16 µM
# [30] = second compound 3.16 µM, first compound 10 µM
# [31] = second compound 10 µM, first compound 0.0316 µM
# [32] = second compound 10 µM, first compound 0.1 µM
# [33] = second compound 10 µM, first compound 0.316 µM
# [34] = second compound 10 µM, first compound 1 µM
# [35] = second compound 10 µM, first compound 3.16 µM
# [36] = second compound 10 µM, first compound 10 µM
# 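Further: agents incubated with spheroids for one week before read-out.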
# 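Wherever viability, T/C is given: 100% = DMSO vehicle-treated control wells.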
smiles,measurement,setting,value
C#Cc1c(F)ccc2cc(O)cc(-c3ncc4c(N5CC6CCC(C5)N6)nc(OCC56CCCN5CC(F)C6)nc4c3F)c12 (stereo unspecified) + CC(Nc1ncnc2nc[nH]c12)c1cc2cccc(Cl)c2c(=O)n1-c1ccccc1,IC50,second compound 0.0316 µM,> 10 µM
same,IC50,second compound 0.1 µM,> 10 µM
same,IC50,second compound 0.316 µM,> 10 µM
same,IC50,second compound 1 µM,> 10 µM
same,IC50,second compound 3.16 µM,> 10 µM
same,IC50,second compound 10 µM,> 10 µM
same,"viability, T/C",[1],105%
same,"viability, T/C",[2],101%
same,"viability, T/C",[3],116%
same,"viability, T/C",[4],98.3%
same,"viability, T/C",[5],112%
same,"viability, T/C",[6],119%
same,"viability, T/C",[7],107%
same,"viability, T/C",[8],102%
same,"viability, T/C",[9],107%
same,"viability, T/C",[10],101%
same,"viability, T/C",[11],110%
same,"viability, T/C",[12],112%
same,"viability, T/C",[13],98.1%
same,"viability, T/C",[14],108%
same,"viability, T/C",[15],96.6%
same,"viability, T/C",[16],102%
same,"viability, T/C",[17],106%
same,"viability, T/C",[18],121%
same,"viability, T/C",[19],102%
same,"viability, T/C",[20],102%
same,"viability, T/C",[21],103%
same,"viability, T/C",[22],109%
same,"viability, T/C",[23],104%
same,"viability, T/C",[24],115%
same,"viability, T/C",[25],107%
same,"viability, T/C",[26],99.1%
same,"viability, T/C",[27],112%
same,"viability, T/C",[28],93.7%
same,"viability, T/C",[29],98.1%
same,"viability, T/C",[30],126%
same,"viability, T/C",[31],87.2%
same,"viability, T/C",[32],82.8%
same,"viability, T/C",[33],80%
same,"viability, T/C",[34],88.5%
same,"viability, T/C",[35],94%
same,"viability, T/C",[36],88.9%
CCCS(=O)(=O)Nc1ccc(F)c(C(=O)c2c[nH]c3ncc(-c4ccc(Cl)cc4)cc23)c1F + Cc1nc(NC(=O)N2CCCC2C(N)=O)sc1-c1ccnc(C(C)(C)C(F)(F)F)c1,IC50,second compound 0.0316 µM,3.91 µM
same,IC50,second compound 0.1 µM,3.9 µM
same,IC50,second compound 0.316 µM,4.42 µM
same,IC50,second compound 1 µM,3.53 µM
same,IC50,second compound 3.16 µM,< 0.0316 µM
same,IC50,second compound 10 µM,< 0.0316 µM
same,"viability, T/C",[1],97.7%
same,"viability, T/C",[2],89.5%
same,"viability, T/C",[3],109%
same,"viability, T/C",[4],82.5%
same,"viability, T/C",[5],62.3%
same,"viability, T/C",[6],0.1%
same,"viability, T/C",[7],88.2%
same,"viability, T/C",[8],90.2%
same,"viability, T/C",[9],100%
same,"viability, T/C",[10],90.7%
same,"viability, T/C",[11],61.1%
same,"viability, T/C",[12],0.16%
same,"viability, T/C",[13],86.4%
same,"viability, T/C",[14],87.4%
same,"viability, T/C",[15],99.1%
same,"viability, T/C",[16],85.3%
same,"viability, T/C",[17],70.8%
same,"viability, T/C",[18],0.13%
same,"viability, T/C",[19],71.4%
same,"viability, T/C",[20],74%
same,"viability, T/C",[21],68.9%
same,"viability, T/C",[22],72.8%
same,"viability, T/C",[23],53.6%
same,"viability, T/C",[24],0.11%
same,"viability, T/C",[25],45.3%
same,"viability, T/C",[26],46.2%
same,"viability, T/C",[27],38.4%
same,"viability, T/C",[28],44%
same,"viability, T/C",[29],25.9%
same,"viability, T/C",[30],0.29%
same,"viability, T/C",[31],25.3%
same,"viability, T/C",[32],17.9%
same,"viability, T/C",[33],23.2%
same,"viability, T/C",[34],23.5%
same,"viability, T/C",[35],13.6%
same,"viability, T/C",[36],0.19%
Cn1ncc(Cl)c1-c1cc(C(=O)NC(CN)Cc2cccc(F)c2)sc1Cl (stereo unspecified) + CC(Nc1ccc2c(c1)OCCn1cc(N3C(=O)OCC3C(F)F)nc1-2)C(N)=O,IC50,second compound 0.00316 µM,0.614 µM
same,IC50,second compound 0.01 µM,0.707 µM
same,IC50,second compound 0.0316 µM,0.561 µM
same,IC50,second compound 0.1 µM,0.257 µM
same,IC50,second compound 0.316 µM,0.0352 µM
same,IC50,second compound 1 µM,< 0.0316 µM
same,"viability, T/C","second compound 0.00316 µM, first compound 0.0316 µM",88%
same,"viability, T/C","second compound 0.00316 µM, first compound 0.1 µM",65.1%
same,"viability, T/C","second compound 0.00316 µM, first compound 0.316 µM",60.5%
same,"viability, T/C","second compound 0.00316 µM, first compound 1 µM",43.6%
same,"viability, T/C","second compound 0.00316 µM, first compound 3.16 µM",31.9%
same,"viability, T/C","second compound 0.00316 µM, first compound 10 µM",6.62%
same,"viability, T/C","second compound 0.01 µM, first compound 0.0316 µM",89.3%
same,"viability, T/C","second compound 0.01 µM, first compound 0.1 µM",72.4%
same,"viability, T/C","second compound 0.01 µM, first compound 0.316 µM",64.7%
same,"viability, T/C","second compound 0.01 µM, first compound 1 µM",44.9%
same,"viability, T/C","second compound 0.01 µM, first compound 3.16 µM",25.7%
same,"viability, T/C","second compound 0.01 µM, first compound 10 µM",8.23%
same,"viability, T/C",[1],75.7%
same,"viability, T/C",[2],62.9%
same,"viability, T/C",[3],56.5%
same,"viability, T/C",[4],47.7%
same,"viability, T/C",[5],22.9%
same,"viability, T/C",[6],5.89%
same,"viability, T/C",[7],64.5%
same,"viability, T/C",[8],61.6%
same,"viability, T/C",[9],40.3%
same,"viability, T/C",[10],42.9%
same,"viability, T/C",[11],19.8%
same,"viability, T/C",[12],3.42%
same,"viability, T/C",[13],50.2%
same,"viability, T/C",[14],50.2%
same,"viability, T/C",[15],34.2%
same,"viability, T/C",[16],39.2%
same,"viability, T/C",[17],16.1%
same,"viability, T/C",[18],1.76%
same,"viability, T/C",[19],38.1%
same,"viability, T/C",[20],29%
same,"viability, T/C",[21],32.4%
same,"viability, T/C",[22],24.4%
same,"viability, T/C",[23],12.2%
same,"viability, T/C",[24],1.17%
